{
  "source": "patent US10765134B2",
  "about": "“Foodstuff containing citrus products having added 4-hydroxyflavanones” (SYMRISE AG, priority 2015, dated 2020)",
  "test": "Evaluation of taste (bitter, sour, sweet) by panellists, orange juice with and without added 4-hydroxyflavanone",
  "type": "in vivo",
  "source_text": "Masking the perception of sour and the bitterness in orange juice, which was obtained from premature fruits and/or HLB infected fruits with at least 5 ppm limonin\nA commercial orange juice was used for the experiments, which according to an analysis contains 7.8 ppm limonin and was regularly evaluated as too bitter from the panellists. The panellists (n=6) thereby evaluate the 3 attributes “sweet”, “bitter” and “sour” on an unstructured scale of 0 (no taste) to 10 (strong taste). In one sample, the panellists received the orange juice alone, in a further sample, they received the orange juice which was supplemented with an amount of 4-hydroxyflavanone as listed in one of the tables. Thereby, the order was arbitrary and not known to the panellists before.",
  "key": {"[1]": {"conditions": "10 ppm in the examined orange juice"}, "[2]": {"conditions": "10 ppm racemic eriodictyol vs orange juice (7.8 ppm limonin) alone, Example 2"}, "[3]": {"conditions": "B (10 ppm racemic eriodictyol) vs A (orange juice 7.8 ppm limonin alone), Example 5"}, "[4]": {"conditions": "orange juice containing 7.8 ppm limonin + 10 ppm racemic eriodictyol, scale 0-10, n=6 panellists, Example 2"}, "[5]": {"conditions": "sample B: orange juice containing 7.8 ppm limonin + 10 ppm racemic eriodictyol, scale 0-10, Example 5"}, "[6]": {"conditions": "30 ppm in the examined orange juice"}, "[7]": {"conditions": "30 ppm racemic homoeriodictyol-sodium-salt vs orange juice (7.8 ppm limonin) alone, Example 4"}, "[8]": {"conditions": "50 ppm racemic homoeriodictyol-sodium-salt vs orange juice (7.8 ppm limonin) alone, Example 3"}, "[9]": {"conditions": "orange juice containing 7.8 ppm limonin + 30 ppm racemic homoeriodictyol-sodium-salt, scale 0-10, n=6 panellists, Example 4"}, "[10]": {"conditions": "orange juice containing 7.8 ppm limonin + 50 ppm racemic homoeriodictyol-sodium-salt, scale 0-10, n=6 panellists, Example 3"}, "[11]": {"conditions": "20 ppm in the examined orange juice"}, "[12]": {"conditions": "20 ppm racemic naringenin vs orange juice (7.8 ppm limonin) alone, Example 1"}, "[13]": {"conditions": "orange juice containing 7.8 ppm limonin + 20 ppm racemic naringenin, scale 0-10, n=6 panellists, Example 1"}},
  "note": "Structures can show the parent of a compound that is named as a salt.",
  "data": [
    {"smiles": "O=C1C[C@@H](c2ccc(O)c(O)c2)Oc2cc(O)cc(O)c21", "note": "(racemic) [racemic eriodictyol, eriodictyol]", "values": [
      {"measurement": "effect on bitter taste (in words)", "setting": "[1]", "result": "strong reduction"},
      {"measurement": "effect on sour perception (in words)", "setting": "[1]", "result": "decreased"},
      {"measurement": "effect on sweet impression (in words)", "setting": "[1]", "result": "increased"},
      {"measurement": "Relative change Bitter", "setting": "[2]", "result": "−32", "unit": "%"},
      {"measurement": "Relative change Sour", "setting": "[2]", "result": "−20", "unit": "%"},
      {"measurement": "Relative change Sweet", "setting": "[2]", "result": "+28%"},
      {"measurement": "Relative change A/B Bitter", "setting": "[3]", "result": "−21", "unit": "%"},
      {"measurement": "Relative change A/B Sour", "setting": "[3]", "result": "−12", "unit": "%"},
      {"measurement": "Relative change A/B Sweet", "setting": "[3]", "result": "+40%"},
      {"measurement": "Evaluation (0-10) Bitter", "setting": "[4]", "result": 3.2},
      {"measurement": "Evaluation (0-10) Sour", "setting": "[4]", "result": 4.4},
      {"measurement": "Evaluation (0-10) Sweet", "setting": "[4]", "result": 5.1},
      {"measurement": "Evaluation (0-10) Bitter", "setting": "[5]", "result": 3.9},
      {"measurement": "Evaluation (0-10) Sour", "setting": "[5]", "result": 4.4},
      {"measurement": "Evaluation (0-10) Sweet", "setting": "[5]", "result": 4.2}
    ]},
    {"smiles": "COc1cc([C@@H]2CC(=O)c3c(O)cc(O)cc3O2)ccc1O", "note": "(racemic) [racemic homoeriodictyol-sodium-salt, homoeriodictyol-sodium-salt]", "values": [
      {"measurement": "effect on bitter taste (in words)", "setting": "[6]", "result": "clear reduction"},
      {"measurement": "effect on sour impression (in words)", "setting": "[6]", "result": "decreases"},
      {"measurement": "effect on sweet taste (in words)", "setting": "[6]", "result": "does not influence"},
      {"measurement": "Relative change Bitter", "setting": "[7]", "result": "−27", "unit": "%"},
      {"measurement": "Relative change Sour", "setting": "[7]", "result": "−12", "unit": "%"},
      {"measurement": "Relative change Sweet", "setting": "[7]", "result": "+3%"},
      {"measurement": "effect on sour perception (in words)", "setting": "50 ppm in the examined orange juice", "result": "influenced more strongly"},
      {"measurement": "Relative change Bitter", "setting": "[8]", "result": "−13", "unit": "%"},
      {"measurement": "Relative change Sour", "setting": "[8]", "result": "−23", "unit": "%"},
      {"measurement": "Relative change Sweet", "setting": "[8]", "result": "+24%"},
      {"measurement": "Evaluation (0-10) Bitter", "setting": "[9]", "result": 3.2},
      {"measurement": "Evaluation (0-10) Sour", "setting": "[9]", "result": 4.1},
      {"measurement": "Evaluation (0-10) Sweet", "setting": "[9]", "result": 4.8},
      {"measurement": "Evaluation (0-10) Bitter", "setting": "[10]", "result": 4.1},
      {"measurement": "Evaluation (0-10) Sour", "setting": "[10]", "result": 3.3},
      {"measurement": "Evaluation (0-10) Sweet", "setting": "[10]", "result": 4.0}
    ]},
    {"smiles": "O=C1C[C@@H](c2ccc(O)cc2)Oc2cc(O)cc(O)c21", "note": "(racemic) [racemic naringenin, naringenin]", "values": [
      {"measurement": "effect on bitter taste (in words)", "setting": "[11]", "result": "clear reduction"},
      {"measurement": "effect on sour impression (in words)", "setting": "[11]", "result": "decrease"},
      {"measurement": "effect on sweet impression (in words)", "setting": "[11]", "result": "increase"},
      {"measurement": "Relative change Bitter", "setting": "[12]", "result": "−31", "unit": "%"},
      {"measurement": "Relative change Sour", "setting": "[12]", "result": "−25", "unit": "%"},
      {"measurement": "Relative change Sweet", "setting": "[12]", "result": "+30%"},
      {"measurement": "Evaluation (0-10) Bitter", "setting": "orange juice containing 7.8 ppm limonin + 20 ppm racemic naringenin, scale 0 (no taste) to 10 (strong taste), n=6 panellists, Example 1", "result": 3.4},
      {"measurement": "Evaluation (0-10) Sour", "setting": "[13]", "result": 3.3},
      {"measurement": "Evaluation (0-10) Sweet", "setting": "[13]", "result": 5.2}
    ]}
  ]
}
